Series [1] has as its system homozygous Zdhhc8 mutant mice and wild-type littermate controls. Put plainly: Locomotor activating effects of MK801 in the open field. The class given is in vivo. The protocol:
Open field assay. Animals were not pre-exposed to the chamber before testing. Activity was monitored in a clear acrylic chamber directly illuminated and equipped with infrared sensors for the automatic recording of horizontal and vertical activity (Colbourn Instruments). Each animal was placed initially in the periphery of the chamber, and recordings of the total distance traveled, the number of rearings (vertical moves) and the number of entries in the centerfield over the next 15 min were used as a measure of a locomotor response to novelty. 47 female mice (17 homozygous Zdhhc8 mutant, 17 heterozygous Zdhhc8 mutant and 13 wild-type littermate controls) and 45 male mice (13 homozygous Zdhhc8 mutant, 19 heterozygous Zdhhc8 mutant and 13 wild-type littermate controls) were tested.
Drug administration. MK801 was purchased from Sigma. Each experimental group consisted of 8-10 mice, which received the same number of injections, administered intraperitoneally, of either drug (0.4 mg per kg body weight) or vehicle. After 30 minutes of prehabituation in the open field, the mice were removed, injected and then left to rest for 10 minutes in their home cage before returning them to the open field arena, where they were monitored for an additional 30 minutes. […]

Series [2] deals with PSD95 (Post-Synaptic Density-95).

The values that follow come from patent US20080254462A1, “ALTERED ZDHHC8 EXPRESSION AS A MARKER OF INCREASED RISK OF SCHIZOPHRENIA” (priority 2005, published 2008).

For the compound `C[C@]12N[C@H](Cc3ccccc31)c1ccccc12` [MK801, dizocilpine], the “Sensitivity to MK801-induced stimulation of locomotor activity (ratio of activity after injection to activity before injection)” value in series [1] (homozygous Zdhhc8 mutant female mice vs wild-type littermate controls, 0.4 mg per kg intraperitoneally, P=0.05, not in males) is “somewhat less sensitive to MK801-induced stimulation of locomotor activity than wild-type littermate controls”. In addition, the “Locomotor stimulation after MK801 injection” value in series [1] (open field, 0.4 mg per kg body weight intraperitoneally, 30 minutes before and 30 minutes after injection, both genotypes, females and males) is “Locomotor stimulation after MK801 injection was observed in both genotypes in both females (E) and males (F)”.
As to “ZDHHC8 mutant "230" (lacks the entire C-terminal domain)”, in series [2], the “metabolic labeling assay (palmitoylation of PSD95)” value was “this form shows no essentially no activity when compared with vector-only control”.
